Experimental data: PubChem BioAssay (NCI)
Several values for one entry are separate records, joined by “and”; a condition that tells them apart may be missing. Identical values can stand only once.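 96-well plates; 48 h exposure; 5 concentrations. Endpoints by linear interpolation between flanking doses. Not reached: highest tested concentration assigned. At the GI50, growth is halved. TGI is the concentration that stops growth completely.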

Test system: MDA-MB-468 breast
Experiment: NCI-60 cell line screen, 48 h

SMILES	GI50	TGI
CCCCCCCCCCCCCCCC(=O)NS(=O)(=O)OC[C@H]1O[C@@H](n2cnc3c(N)ncnc32)[C@H](O)[C@@H]1O	< 0.0328 µM	
O=S(=O)(NCCNc1nccc(-c2c(-c3ccc(F)cc3)nc3sccn23)n1)c1ccc(O)cc1	3.37 µM	48.2 µM
O=C(/C=C(/C=C/c1cccc2[nH]ccc12)OB(F)F)/C=C/c1cccc2[nH]ccc12	0.473 µM	3.12 µM
CC1(C)CC[C@]23CC[C@]4(C)[C@H](CC[C@@H]5[C@@]6(C)CCCNC(C)(C)[C@@H]6CC[C@]54C)[C@H]2[C@H]1OC3	1.61 µM	3.45 µM
COc1cc(C)c(-c2ccc(OC)c(=O)cc2C)c(OC)c1OC		> 100 µM
ClC(Cl)c1nc(-c2ccco2)n2nc(-c3ccccc3)cc2n1	0.322 µM	1.15 µM
CCc1ccc(Oc2c(-c3ccc(OCCc4cccc(C(F)(F)F)c4)cc3O)n[nH]c2C(F)(F)F)cc1	1.87 µM	7.96 µM
COc1ccc(-c2nc3sccn3c2-c2ccnc(NCCNS(=O)(=O)c3ccc(C(F)(F)F)cc3)n2)cc1	1.19 µM	7.62 µM
NS(=O)(=O)c1ccc(N=Nc2c(O)[nH]c3ccc(C(=O)NCCCn4ccnc4)cc23)cc1	> 25 µM	> 25 µM
CS(=O)(=O)N1CCC(Nc2ncc(C(=O)c3c(F)cccc3F)c(N)n2)CC1	12.4 µM	> 25 µM
O=C1/C(=C/c2ccc(Cl)cc2)CN(Cc2cn(CCCNc3ccnc4cc(Cl)ccc34)nn2)C/C1=C\c1ccc(Cl)cc1	1.4 µM	3.5 µM
Nc1c(C(=O)Nc2cccc(Cl)c2)sc2nc3c(cc12)C(O)CCC3 (stereo not drawn)	0.257 µM	15.2 µM
C[n+]1cccc(NC(=O)c2ccc3ccc4ccc(C(=O)Nc5ccc[n+](C)c5)nc4c3n2)c1	0.252 µM	1.29 µM
CC(C)c1cnc(-c2cc(Cl)ccc2F)cc1Nc1ccncc1C(=O)NC(CO)CO	8.35 µM	32.7 µM
CC[C@]12C=CCN3CC[C@]4(C(=C(C(=O)OC)C1)Nc1cc5c(cc14)[C@@H]1[C@H](O5)[C@@H](O)[C@@]4(CC)CC(C(=O)OC)=C5Nc6ccccc6[C@@]56CCN1[C@@H]46)[C@@H]32	0.147 µM and 0.183 µM	1.54 µM and 1.62 µM
COc1cc2c(Nc3ccc(-c4ccc(N)cc4)cc3)ncnc2c(OC)c1OC	11.2 µM	49 µM
C[C@@]12CC[C@@H](O)C[C@@H]1CC[C@H]1[C@H]2CC[C@@]2(C)[C@H](c3ccc(=O)oc3)CC[C@@]12O	0.0278 µM	0.0811 µM
CC(=O)Oc1ccc(C2OC(c3ccc4ccccc4c3OC(C)=O)=NN2C(C)=O)c(OC(C)=O)c1 (stereo not drawn)	0.401 µM	3.22 µM
COc1ccc2[nH]c(C(=O)OCc3ccc4c(Br)cc(Br)c(O)c4n3)cc2c1	0.822 µM	2.46 µM
CS(=O)(=O)c1nccc(-c2c(-c3ccc(F)c(OCCc4ccccc4)c3)nc3sccn23)n1	2.57 µM	7.36 µM
Cc1ccc(NC(=S)NNC(=S)Nc2ccc(C)cc2)cc1	2.82 µM	7.58 µM
COc1ccc(-c2cc(=O)c3c(OC)c4ccoc4c(/C=C/C=O)c3o2)cc1	3.58 µM	14.4 µM
CC(C)n1cc(-c2ccc3c(c2)N(C)CC3)c2c(NS(=O)(=O)c3ccn(C)n3)ccnc21	41.1 µM	> 100 µM
O=C(O)c1ccc(CSc2nc3ccccc3[nH]2)cc1	> 100 µM	> 100 µM
Cc1nc2ccc(-n3ncc(C(=O)c4cc5ccccc5[nH]4)c3N)cc2[nH]1	12.5 µM	43.2 µM
Cc1c(O)cccc1C(=O)N[C@@H](CSc1ccccc1)[C@H](O)CN1C[C@H]2CCCC[C@H]2C[C@H]1C(=O)NC(C)(C)C	3.89 µM	15.2 µM
COc1ccccc1CNCCCN1C(=O)c2ccc3c4c(ccc(c24)C1=O)C(=O)N(CCCNCCCCNCCCN)C3=O	0.131 µM	0.273 µM
CC[C@]12C=CCN3CC[C@@]4(c5ccc(OC)cc5N(C)[C@H]4[C@@](O)(C(=O)OC)[C@@H]1OC(=O)CCC(=O)O[C@H]1CC[C@H]4[C@@H]5CCC6=CC(=O)CC[C@@H]6[C@H]5CC[C@]14C)[C@@H]32	1.42 µM	5.9 µM

SMILES	GI50	TGI
COc1cccc(C(=O)NNc2nc(Cl)nc(N3CCN(C(c4ccccc4)c4ccccc4)CC3)n2)c1	2.4 µM	8.11 µM
c1cc[n+](Cc2c3ccccc3cc3c2ccc2ccccc23)cc1	0.426 µM	2.68 µM
Cn1cc(-c2csc(-c3ccccc3)n2)c2cccnc21	14.2 µM	48.4 µM
CCN1CCN(Cc2ccc(NC(=O)Nc3nc(-c4cc(OC)c(OC)c(OC)c4)cs3)cc2C(F)(F)F)CC1	1.43 µM	3.03 µM
O=C1c2ccccc2C(=O)c2c1oc1cc(O)c(Cl)cc21	1.13 µM	7.23 µM
COc1ccc(OC)c(C2=C(c3cn(C)c4ccccc34)C(=O)NC2=O)c1	> 25 µM	> 25 µM
Clc1nc(Cl)c2ncn(-c3ccccc3)c2n1	2.71 µM	8.39 µM
CN1C(=O)C(N=Nc2ccc([N+](=O)[O-])cc2)SC1=S (stereo not drawn)	4.33 µM and 9.92 µM	30.6 µM and 56.6 µM
C#C[C@]1(O)CC[C@H]2[C@@H]3CC=C4c5sc(-c6ccc(C)cc6)nc5CC[C@]4(C)[C@H]3CC[C@@]21C	> 100 µM	> 100 µM
C=C(C(=O)c1ccccc1)C(NC(C)(C)C)c1ccccc1 (stereo not drawn)	0.566 µM	1.96 µM
Cc1[nH]c(C(=O)Nc2cccc(OC3CCNCC3)c2)c(Cl)c1Cl	1.87 µM	3.68 µM
Nc1nc(N)c2cc(S(=O)(=O)c3ccc4ccccc4c3)ccc2n1	2.43 µM	> 100 µM
Cn1c2c(c3ccccc31)CCN1C[C@@H]3CCCC[C@H]3C[C@@H]21	1.77 µM	8.73 µM
CCN1C(=O)/C(=c2\sc3n(c2=O)C2C(NN=3)N(CC)C(=O)N2CC)c2ccccc21 (stereo not drawn)	0.336 µM	8.33 µM
CCN1CCN(Cc2ccc(Nc3ncc(F)c(-c4cc(F)c5nc(C)n(C(C)C)c5c4)n3)nc2)CC1	6.95 µM	14 µM
COc1cc(/C=C2\CCC/C(=C\c3cc(CN4CCCC4)c(O)c(OC)c3)C2=O)cc(CN2CCCC2)c1O	1.7 µM	4.07 µM
Nc1nc2ccc(CNc3ccc(C(=O)NC(CC(=O)O)C(=O)O)cc3)cc2c(=O)[nH]1 (stereo not drawn)	9.09 µM	> 100 µM
COc1cccc2nc(Nc3cccc(NC(=O)c4ccc(N5CCN(C)CC5)c(C(F)(F)F)c4)c3)ccc12	1.11 µM	3.65 µM
CC(C)C[C@H](NC(=O)[C@@H](Cc1ccccc1)n1ccc(Nc2ccccc2)cc1=O)B(O)O	0.236 µM	1.29 µM
CC1(C)N=C(N)N=C(N)N1c1ccc(OCC(=O)Nc2ccc(S(=O)(=O)F)cc2Cl)c(Cl)c1	1.84 µM	> 100 µM
NC(=O)c1c[nH]c2ncnc(N)c12	18.8 µM	90.1 µM
Cc1ccc(C2=NN(c3ccc(S(=O)(=O)NC(=O)NCc4ccccc4)cc3)C(c3ccc(N(C)C)cc3)C2)c(C)c1 (stereo not drawn)	2.36 µM	6.11 µM
CS(=O)(=O)Nc1cc(-c2ccc3ncc(C#N)c(Nc4ccc(F)c(Cl)c4)c3c2)cnc1Cl	0.0676 µM	0.396 µM
COc1ccc(N=Nc2ccc(O)c(=O)cc2)cc1	2.61 µM	18.7 µM
CSC1=CC(=O)c2ccccc2C1=O	0.26 µM	1.09 µM
CC(C)[C@@]12C[C@@H](OC(=O)COC(=O)c3ccccc3)[C@@](C)(O1)[C@@H]1CC[C@@H](C)[C@H]1[C@@H]2OC(=O)/C=C/c1ccccc1	> 81.2 µM	> 100 µM
CCOc1cc(Cl)c(C(C)NC(=O)c2cccc(OC)c2)cc1OCC (stereo not drawn)	3.38 µM	64.6 µM
